Reference: PubChem BioAssay (NCI)
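Interpolation was linear, between the two tested concentrations surrounding the appropriate level; five concentrations were tested over 48 hours in 96-well plates. TGI is the concentration that stops growth completely.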

Legend:
Experiment in all cases: NCI anticancer screen, dose series, 48 h
[1] = system: 786-0 renal
[2] = system: A498 renal
[3] = system: A549 NSCLC
[4] = system: ACHN renal
[5] = system: BT-549 breast
[6] = system: CAKI-1 renal
[7] = system: CCRF-CEM leukemia
[8] = system: COLO 205 colon
[9] = system: DU-145 prostate
[10] = system: EKVX NSCLC
[11] = system: HCC-2998 colon
[12] = system: HCT-116 colon
[13] = system: HCT-15 colon
[14] = system: HL-60(TB) leukemia
[15] = system: HOP-62 NSCLC
[16] = system: HOP-92 NSCLC
[17] = system: HS 578T breast
[18] = system: IGROV1 ovarian
[19] = system: K-562 leukemia
[20] = system: KM12 colon
[21] = system: LOX IMVI melanoma
[22] = system: M14 melanoma
[23] = system: MALME-3M melanoma
[24] = system: MDA-MB-231 breast
[25] = system: MDA-MB-435
[26] = system: MDA-N
[27] = system: MOLT-4 leukemia
[28] = system: NCI-H23 lung
[29] = system: NCI-H460 lung
[30] = system: NCI-H522 lung
[31] = system: NCI/ADR-RES ovarian
[32] = system: OVCAR-3 ovarian
[33] = system: OVCAR-4 ovarian
[34] = system: OVCAR-5 ovarian
[35] = system: OVCAR-8 ovarian
[36] = system: PC-3 prostate
[37] = system: RPMI-8226 leukemia
[38] = system: RXF 393 renal
[39] = system: SF-268 CNS
[40] = system: SF-295 CNS
[41] = system: SF-539 CNS
[42] = system: SK-MEL-2 melanoma
[43] = system: SK-MEL-28 melanoma
[44] = system: SK-MEL-5 melanoma
[45] = system: SK-OV-3 ovarian
[46] = system: SN12C renal
[47] = system: SNB-19 CNS
[48] = system: SNB-75 CNS
[49] = system: SR leukemia
[50] = system: SW-620 colon
[51] = system: T-47D breast
[52] = system: U251 CNS
[53] = system: UACC-257 melanoma
[54] = system: UACC-62 melanoma
[55] = system: UO-31 renal
[56] = system: HT29 colon
[57] = system: MCF7 breast
[58] = system: NCI-H226 lung
[59] = system: TK-10 renal

Measured: TGI

CNC(=S)N/N=C(\C)c1cc(OC)ccc1O
not listed: [56] | [57] | [58] | [59]
> 100 µM: all other assays above

CCOc1ccc(NC(=O)C(=O)C2C(=O)Nc3ccccc3S2=O)cc1 (configuration not stated)
not listed: [8] | [9] | [11] | [19] | [27] | [47] | [49]
> 100 µM: all other assays above
